Test [1] deals with bone marrow-isolated neutrophils. Description: Neutrophil cell death. Format: cell-based, mouse. The settings on record: TSP-1 1, 10 or 100 nM, in the presence of inflammatory cytokines; dose-dependent.
For test [2], the system named is bone marrow-derived macrophages. The test can be described thus: Macrophage cell death. The format is cell-based, mouse. The settings on record: TSP-1 1, 10 or 100 nM, in the presence of inflammatory cytokines; dose-dependent.
Description: Bone marrow cells from 8- to 12-week-old C57BL/6 J mice were flushed, filtered and cultured in conditioned medium (DMEM/F12 with 10% heat-inactivated FBS, 100 units ml^−1 penicillin/streptomycin, and 20% L929 fibroblasts-conditioned medium) at 37 °C with 5% CO2. After 7–9 days, differentiated macrophages were collected and seeded in 12-well or 6-well plates. The next day, cells were treated with CGRP (1 or 20 nM, Tocris Bioscience, 83651-90-5) for 20 min before exposure to mouse IL-1 (5 ng ml^−1) and TNF (50 ng ml^−1), IL-4 (2 ng ml^−1) and IL-13 (2 ng ml^−1), or IL-10 (2 ng ml^−1) (PeproTech Inc) for 24 or 72 h. Macrophages were detached with TrypLE (Gibco) containing 3 mM EDTA, stained with LIVE/DEAD Aqua dye for 20 min on ice, and incubated with blocking solution (10 μg ml^−1 TruStain FcX anti-CD16/32 (clone 93, BioLegend)) for 20 min before staining with antibodies for 30 min on ice. Antibodies from BioLegend included PE anti-CD11b (clone M1/70, 1 μg ml^−1), BV711 anti-F4/80 (clone BM8, 2 μg ml^−1), APC anti-CD80 (clone 16-10A1, 0.5 μg ml^−1) and PE-Cyanine7 anti-CD206 (clone C068C2, 1 μg ml^−1). […] After washing with Perm buffer and staining buffer, cells were analysed using BD LSR Fortessa X-20 and FlowJo software (BD Biosciences). […]
Test [3] has as its system Nav1.8^cre/Rosa26^DTA mice. The test can be described thus: Flow cytometry of injured skin and muscle, nociceptor-ablated mice. The format is in vivo, mouse. The settings on record: TSP-1 total 10 μg. As for the experimental part:
Skin wounds were collected using an 8-mm biopsy punch, and muscle defects were dissected to isolate the quadriceps. Samples were minced with scissors and subjected to two serial digestions with collagenase XI (1 mg ml^−1) at 37 °C (two times 20 min for skin, two times 15 min for muscle). After the first digestion, the supernatant was collected and mixed with neutralization buffer (DMEM/F12 with 10% FBS and 5 mM EDTA). The first collection was kept on ice and fresh collagenase XI was added to the undigested tissue for the second digestion. Digestion mixtures were passed through a 70-μm cell strainer and stained with LIVE/DEAD Fixable Aqua dye (Thermo Fisher Scientific, 1:400 dilution in PBS) for 20 min on ice. Cells were incubated with TruStain FcX anti-CD16/32 (10 μg ml^−1; clone 93, BioLegend) diluted in staining buffer (5% FBS and 2 mM EDTA in PBS) for 20 min and subsequently incubated with primary antibodies in staining buffer for a further 30 min on ice. The following anti-mouse antibodies from BioLegend were used: FITC anti-CD11b (clone M1/70, 6.6 μg ml^−1) or BV711 anti-CD11b (clone M1/70, 2 μg ml^−1); PE anti-F4/80 (clone BM8, 4 μg ml^−1); BV421 anti-Ly6G (clone 1A8, 2 μg ml^−1); BV711 anti-Ly6C (clone HK1.4, 1 μg ml^−1) or FITC anti-Ly6C (clone HK1.4, 5 μg ml^−1); PE-Cyanine7 anti-CD206 (clone C068C2, 2.6 μg ml^−1); APC anti-CD206 (clone C068C2, 2 μg ml^−^1); PE-Cyanine7 anti-CD3 (clone 17A2, 4 μg ml^−1); BV711 anti-CD3 (clone 17A2, 4 μg ml^−1);APC anti-CD4 (clone GK1.5, 2 μg ml^−1); BV421 anti-CD8 (clone 53-6.7, 2 μg ml^−1); PE anti-TCR β (clone H57-597, 2 μg ml^−1); APC/Fire 750 anti-TCR γ/δ (clone GL3, 2 μg ml^−1); PE-Cyanine anti-CD11c (clone N418, 2 μg ml^−1); APC/Fire 750 anti-MHC Class II (clone M5/114.15.2, 2 μg ml^−1). Cells were washed once with a large volume of staining buffer before analysis with BD LSR Fortessa X-20 and FlowJo software (BD Biosciences).

The test system of test [4] is bone marrow-derived macrophages. The test can be described thus: Macrophage efferocytosis of neutrophils. Format: cell-based, mouse. The settings on record: macrophage treatment with TSP-1 1, 10 or 100 nM.
Description: An efferocytosis assay kit (Cayman, 601770) was used following the manufacturer’s instructions. Neutrophils were labelled with CFSE and cultured in RPMI with 2% serum for 12 h to induce cell death. Bone marrow-derived macrophages cultured for 7 days were seeded at a density of 4 × 10^5 cells per well in a 6-well plate with DMEM/F12 containing 10% FBS and 100 units ml^−1 penicillin/streptomycin. Prior to the assay, macrophages were pre-treated with CGRP (1 or 20 nM) for 24 h. Macrophages were collected, labelled with CytoTell Blue, and then incubated with CFSE-labelled dead/dying neutrophils at different ratios (1:1, 1:2, and 1:4) at 37 °C for 15 min. The reaction was stopped by washing cells with ice-cold PBS containing 5% FBS and 1 mM EDTA. Cells were analysed with BD LSR Fortessa X-20 and FlowJo software (BD Biosciences). Macrophages were identified by CytoTell Blue-positive staining, and the efferocytosis index was calculated as the percentage of CFSE-positive cells in CytoTell Blue-labelled macrophages.
For the efferocytosis assay, cells were cultured with 1 nM CGRP immediately after transfection. After 24 h, cells were collected and co-cultured with dead or dying neutrophils.
For test [5] the test system is unchanged. The test can be described thus: Macrophage transwell migration. The settings on record: TSP-1 1, 10 or 100 nM. Format: cell-based, mouse.
Description: Assays were conducted using 6.5-mm-diameter culture plate inserts (Corning) with 5-μm and 3-μm pore sizes for macrophages and neutrophils, respectively. Macrophages (1 × 10^5) or neutrophils (3 × 10^5) in migration media (DMEM/F12 with 0.25% BSA) were added to the inserts. The lower chambers contained migration buffer alone or chemoattractant (mouse CCL2 10 ng ml^−1 for macrophages or mouse CXCL1/KC 150 ng ml^−1 for neutrophils, PeproTech) with or without CGRP. Cells were allowed to migrate through the insert membrane for 3-4 h at 37 °C with 5% CO2. For macrophages, the inserts were then fixed with 4% paraformaldehyde, and cells on the upper side were removed. DAPI (1 μg ml^−1) was used to stain cells on the bottom side, and they were counted using a fluorescent microscope. […] The data are presented as the fold change, calculated by dividing the number of cells that migrated in response to treatments by the number of cells that migrated spontaneously (migration media only).
After 24 h, cells were collected for the migration assay.
Test [6] has as its system bone marrow-derived neutrophils. The test can be described thus: Neutrophil transwell migration. Format: cell-based, mouse. Particulars: TSP-1 1, 10 or 100 nM.
Description: Bone marrow cells were flushed from femora and tibiae of C57BL/6 J mice (8- to 12-week-old) with HBSS without Ca^2+ and Mg^2+ containing 2% FBS and 1 mM EDTA. Cell suspension was passed through a 70-μm strainer. Next, EasySep Mouse Neutrophil Enrichment Kit or EasySep Mouse Monocyte Isolation Kit ([sequence] Technologies) was used to isolate neutrophils or monocytes according to the manufacturer’s instructions. Neutrophils were resuspended in RPMI containing 100 units ml^−1 penicillin/streptomycin and 10% FBS for cell migration assay and cell death assay or 2% FBS for efferocytosis.
Assays were conducted using 6.5-mm-diameter culture plate inserts (Corning) with 5-μm and 3-μm pore sizes for macrophages and neutrophils, respectively. Macrophages (1 × 10^5) or neutrophils (3 × 10^5) in migration media (DMEM/F12 with 0.25% BSA) were added to the inserts. The lower chambers contained migration buffer alone or chemoattractant (mouse CCL2 10 ng ml^−1 for macrophages or mouse CXCL1/KC 150 ng ml^−1 for neutrophils, PeproTech) with or without CGRP. […] For neutrophils, cells that migrated into the lower chamber were collected and counted using a haemocytometer. The data are presented as the fold change, calculated by dividing the number of cells that migrated in response to treatments by the number of cells that migrated spontaneously (migration media only).
[7] abbreviates: skin wound borders D1 and D3 or muscle defect via fibrin hydrogel, day 3 post-injury.

For thrombospondin-1 [TSP-1], the neutrophil death entry in test [1] is reported as “accelerated death”. Also, the macrophage death result in test [2] was “accelerated death”. Besides, the “CD206 expression in injured tissue” value in test [3] (skin and muscle injuries, day 14 post-injury) is recorded as “increase”. In addition, in test [3] (setting [7]), the “number of inflammatory monocytes/macrophages (Ly6C^hi) in injured tissue” value was “reduced numbers”, the “number of monocytes/macrophages in injured tissue” value is reported as “reduced numbers” and the “number of neutrophils in injured tissue” value is recorded as “reduced numbers”. Further, the “efferocytosis of neutrophils by macrophages” value in test [4] is “greatly enhanced”. In addition, the “macrophage migration towards CCL2” value in test [5] is “inhibition of migration”. In test [6], the “neutrophil migration towards CXCL1” value is given as “inhibition of migration”.

Source of the values: publication PMC11023938 (Nature, 2024).
